{"source": "patent US20230133672A1", "about": "“FUSION POLYPEPTIDE COMPRISING GDF15 AND POLYPEPTIDE REGION CAPABLE OF O-GLYCOSYLATION” (LG CHEM, LTD., priority 2019, published 2023)", "experiment": "Repeated administration: body weight change in DIO mice", "assay_type": "in vivo, Mouse, C57BL/6J-DIO", "procedure": "The body weight of each mouse was measured on the day of the start of administration of the test substances (before administration), and thereafter, the body weight was measured every day ([…]), and the amount of the administration solution of the test substances was determined on the basis of the most recently measured body weight.\nAll the experimental results obtained in the present example were expressed as mean±standard error and tested using Prism5 (version 5.01). One-way analysis of variance (ANOVA) was performed on all data, and when significance was observed, Dunnett's test was performed to find out the test groups with a significant difference from the control group (significance level: two-sided 5% and 1%, 0.1%).\nExcept for the administration dose, animal number and administration cycle, most of the test processes were the same as in Example 2.1.1 above.\nThe test substances were administered twice a week (Days 0, 4, 7, 11, 14, 18, 21, 25) for a total of 8 times. For comparison, the control group in which the control substance Semaglutide was administered every day was prepared, and the comparison group in which Semaglutide was administered every day was administered once a day daily, and all the administration was progressed from 9 AM.", "data": [{"substance": "HT-ID3-GDF15: Fusion polypeptide: His-Tag, TEV cleavage site, three IgD hinges, GS linker, GDF15 (SEQ ID NO: 3)", "values": [{"measurement": "Body Weight, Mean", "setting": "Day 0, 3 nmol/kg twice a week", "value": "100.0 % of initial"}, {"measurement": "Body Weight, Mean", "setting": "Day 0, 10 nmol/kg twice a week", "value": "100.0 % of initial"}, {"measurement": "Body Weight, Mean", "setting": "Day 0, 30 nmol/kg twice a week", "value": "100.0 % of initial"}, {"measurement": "Body Weight, Mean", "setting": "Day 1, 3 nmol/kg twice a week", "value": "98.2 % of initial"}, {"measurement": "Body Weight, Mean", "setting": "Day 1, 10 nmol/kg twice a week", "value": "98.5 % of initial"}, {"measurement": "Body Weight, Mean", "setting": "Day 1, 30 nmol/kg twice a week", "value": "98.2 % of initial"}, {"measurement": "Body Weight, Mean", "setting": "Day 2, 3 nmol/kg twice a week", "value": "96.9 % of initial"}, {"measurement": "Body Weight, Mean", "setting": "Day 2, 10 nmol/kg twice a week", "value": "97.3 % of initial"}, {"measurement": "Body Weight, Mean", "setting": "Day 2, 30 nmol/kg twice a week", "value": "97.1 % of initial"}, {"measurement": "Body Weight, Mean", "setting": "Day 3, 3 nmol/kg twice a week", "value": "95.6 % of initial"}, {"measurement": "Body Weight, Mean", "setting": "Day 3, 10 nmol/kg twice a week", "value": "95.7 % of initial"}, {"measurement": "Body Weight, Mean", "setting": "Day 3, 30 nmol/kg twice a week", "value": "95.8 % of initial"}, {"measurement": "Body Weight, Mean", "setting": "Day 4, 3 nmol/kg twice a week", "value": "94.4 % of initial"}, {"measurement": "Body Weight, Mean", "setting": "Day 4, 10 nmol/kg twice a week", "value": "94.6 % of initial"}, {"measurement": "Body Weight, Mean", "setting": "Day 4, 30 nmol/kg twice a week", "value": "94.8 % of initial"}, {"measurement": "Body Weight, Mean", "setting": "Day 5, 3 nmol/kg twice a week", "value": "92.8 % of initial"}, {"measurement": "Body Weight, Mean", "setting": "Day 5, 10 nmol/kg twice a week", "value": "92.8 % of initial"}, {"measurement": "Body Weight, Mean", "setting": "Day 5, 30 nmol/kg twice a week", "value": "92.8 % of initial"}, {"measurement": "Body Weight, Mean", "setting": "Day 6, 3 nmol/kg twice a week", "value": "91.9 % of initial"}, {"measurement": "Body Weight, Mean", "setting": "Day 6, 10 nmol/kg twice a week", "value": "91.5 % of initial"}, {"measurement": "Body Weight, Mean", "setting": "Day 6, 30 nmol/kg twice a week", "value": "91.7 % of initial"}, {"measurement": "Body Weight, Mean", "setting": "Day 7, 3 nmol/kg twice a week", "value": "91.0 % of initial"}, {"measurement": "Body Weight, Mean", "setting": "Day 7, 10 nmol/kg twice a week", "value": "90.7 % of initial"}, {"measurement": "Body Weight, Mean", "setting": "Day 7, 30 nmol/kg twice a week", "value": "90.8 % of initial"}, {"measurement": "Body Weight, Mean", "setting": "Day 8, 3 nmol/kg twice a week", "value": "90.0 % of initial"}, {"measurement": "Body Weight, Mean", "setting": "Day 8, 10 nmol/kg twice a week", "value": "89.8 % of initial"}, {"measurement": "Body Weight, Mean", "setting": "Day 8, 30 nmol/kg twice a week", "value": "89.8 % of initial"}, {"measurement": "Body Weight, Mean", "setting": "Day 9, 3 nmol/kg twice a week", "value": "89.6 % of initial"}, {"measurement": "Body Weight, Mean", "setting": "Day 9, 10 nmol/kg twice a week", "value": "89.3 % of initial"}, {"measurement": "Body Weight, Mean", "setting": "Day 9, 30 nmol/kg twice a week", "value": "89.8 % of initial"}, {"measurement": "Body Weight, Mean", "setting": "Day 10, 3 nmol/kg twice a week", "value": "89.1 % of initial"}, {"measurement": "Body Weight, Mean", "setting": "Day 10, 10 nmol/kg twice a week", "value": "88.7 % of initial"}, {"measurement": "Body Weight, Mean", "setting": "Day 10, 30 nmol/kg twice a week", "value": "89.7 % of initial"}, {"measurement": "Body Weight, Mean", "setting": "Day 11, 3 nmol/kg twice a week", "value": "91.5 % of initial"}, {"measurement": "Body Weight, Mean", "setting": "Day 11, 10 nmol/kg twice a week", "value": "90.9 % of initial"}, {"measurement": "Body Weight, Mean", "setting": "Day 11, 30 nmol/kg twice a week", "value": "92.0 % of initial"}, {"measurement": "Body Weight, Mean", "setting": "Day 12, 3 nmol/kg twice a week", "value": "91.5 % of initial"}, {"measurement": "Body Weight, Mean", "setting": "Day 12, 10 nmol/kg twice a week", "value": "89.8 % of initial"}, {"measurement": "Body Weight, Mean", "setting": "Day 12, 30 nmol/kg twice a week", "value": "90.0 % of initial"}, {"measurement": "Body Weight, Mean", "setting": "Day 13, 3 nmol/kg twice a week", "value": "92.3 % of initial"}, {"measurement": "Body Weight, Mean", "setting": "Day 13, 10 nmol/kg twice a week", "value": "90.1 % of initial"}, {"measurement": "Body Weight, Mean", "setting": "Day 13, 30 nmol/kg twice a week", "value": "90.4 % of initial"}, {"measurement": "Body Weight, Mean", "setting": "Day 14, 3 nmol/kg twice a week", "value": "92.5 % of initial"}, {"measurement": "Body Weight, Mean", "setting": "Day 14, 10 nmol/kg twice a week", "value": "91.0 % of initial"}, {"measurement": "Body Weight, Mean", "setting": "Day 14, 30 nmol/kg twice a week", "value": "90.9 % of initial"}, {"measurement": "Body Weight, Mean", "setting": "Day 15, 3 nmol/kg twice a week", "value": "92.6 % of initial"}, {"measurement": "Body Weight, Mean", "setting": "Day 15, 10 nmol/kg twice a week", "value": "90.0 % of initial"}, {"measurement": "Body Weight, Mean", "setting": "Day 15, 30 nmol/kg twice a week", "value": "89.3 % of initial"}, {"measurement": "Body Weight, Mean", "setting": "Day 16, 3 nmol/kg twice a week", "value": "93.3 % of initial"}, {"measurement": "Body Weight, Mean", "setting": "Day 16, 10 nmol/kg twice a week", "value": "91.2 % of initial"}, {"measurement": "Body Weight, Mean", "setting": "Day 16, 30 nmol/kg twice a week", "value": "89.6 % of initial"}, {"measurement": "Body Weight, Mean", "setting": "Day 17, 3 nmol/kg twice a week", "value": "94.0 % of initial"}, {"measurement": "Body Weight, Mean", "setting": "Day 17, 10 nmol/kg twice a week", "value": "91.8 % of initial"}, {"measurement": "Body Weight, Mean", "setting": "Day 17, 30 nmol/kg twice a week", "value": "90.4 % of initial"}, {"measurement": "Body Weight, Mean", "setting": "Day 18, 3 nmol/kg twice a week", "value": "94.4 % of initial"}, {"measurement": "Body Weight, Mean", "setting": "Day 18, 10 nmol/kg twice a week", "value": "92.3 % of initial"}, {"measurement": "Body Weight, Mean", "setting": "Day 18, 30 nmol/kg twice a week", "value": "91.0 % of initial"}, {"measurement": "Body Weight, Mean", "setting": "Day 19, 3 nmol/kg twice a week", "value": "95.0 % of initial"}, {"measurement": "Body Weight, Mean", "setting": "Day 19, 10 nmol/kg twice a week", "value": "91.9 % of initial"}, {"measurement": "Body Weight, Mean", "setting": "Day 19, 30 nmol/kg twice a week", "value": "90.0 % of initial"}, {"measurement": "Body Weight, Mean", "setting": "Day 20, 3 nmol/kg twice a week", "value": "95.2 % of initial"}, {"measurement": "Body Weight, Mean", "setting": "Day 20, 10 nmol/kg twice a week", "value": "91.2 % of initial"}, {"measurement": "Body Weight, Mean", "setting": "Day 20, 30 nmol/kg twice a week", "value": "89.6 % of initial"}, {"measurement": "Body Weight, Mean", "setting": "Day 21, 3 nmol/kg twice a week", "value": "95.8 % of initial"}, {"measurement": "Body Weight, Mean", "setting": "Day 21, 10 nmol/kg twice a week", "value": "92.1 % of initial"}, {"measurement": "Body Weight, Mean", "setting": "Day 21, 30 nmol/kg twice a week", "value": "90.4 % of initial"}, {"measurement": "Body Weight, Mean", "setting": "Day 22, 3 nmol/kg twice a week", "value": "96.4 % of initial"}, {"measurement": "Body Weight, Mean", "setting": "Day 22, 10 nmol/kg twice a week", "value": "92.1 % of initial"}, {"measurement": "Body Weight, Mean", "setting": "Day 22, 30 nmol/kg twice a week", "value": "90.0 % of initial"}, {"measurement": "Body Weight, Mean", "setting": "Day 23, 3 nmol/kg twice a week", "value": "97.1 % of initial"}, {"measurement": "Body Weight, Mean", "setting": "Day 23, 10 nmol/kg twice a week", "value": "92.5 % of initial"}, {"measurement": "Body Weight, Mean", "setting": "Day 23, 30 nmol/kg twice a week", "value": "90.0 % of initial"}, {"measurement": "Body Weight, Mean", "setting": "Day 24, 3 nmol/kg twice a week", "value": "97.4 % of initial"}, {"measurement": "Body Weight, Mean", "setting": "Day 24, 10 nmol/kg twice a week", "value": "93.2 % of initial"}, {"measurement": "Body Weight, Mean", "setting": "Day 24, 30 nmol/kg twice a week", "value": "91.0 % of initial"}, {"measurement": "Body Weight, Mean", "setting": "Day 25, 3 nmol/kg twice a week", "value": "97.6 % of initial"}, {"measurement": "Body Weight, Mean", "setting": "Day 25, 10 nmol/kg twice a week", "value": "93.7 % of initial"}, {"measurement": "Body Weight, Mean", "setting": "Day 25, 30 nmol/kg twice a week", "value": "91.5 % of initial"}, {"measurement": "Body Weight, Mean", "setting": "Day 26, 3 nmol/kg twice a week", "value": "98.5 % of initial"}, {"measurement": "Body Weight, Mean", "setting": "Day 26, 10 nmol/kg twice a week", "value": "94.2 % of initial"}, {"measurement": "Body Weight, Mean", "setting": "Day 26, 30 nmol/kg twice a week", "value": "91.5 % of initial"}, {"measurement": "Body Weight, Mean", "setting": "Day 27, 3 nmol/kg twice a week", "value": "98.0 % of initial"}, {"measurement": "Body Weight, Mean", "setting": "Day 27, 10 nmol/kg twice a week", "value": "94.4 % of initial"}, {"measurement": "Body Weight, Mean", "setting": "Day 27, 30 nmol/kg twice a week", "value": "91.2 % of initial"}, {"measurement": "Body Weight, Mean", "setting": "Day 28, 3 nmol/kg twice a week", "value": "98.6 % of initial"}, {"measurement": "Body Weight, Mean", "setting": "Day 28, 10 nmol/kg twice a week", "value": "94.1 % of initial"}, {"measurement": "Body Weight, Mean", "setting": "Day 28, 30 nmol/kg twice a week", "value": "91.4 % of initial"}]}]}
